# Patent US6552176B2, “Salt forms of 6-n-butylamino-6-deoxy-α-L-sorbofuranose” (G. D. Searle & Co., priority 1990, dated 2003)
# Key:
# [1] = Autoclaving of N-butylglucamine reaction solution, HPLC comparison before and after; type: physicochemical; conditions: 5% (weight/volume) solution, 20 mM MgSO4, pH 5.0; 121° C., 30 P.S.I., 30 minutes
# Protocol: The reaction solution can also be sterilized by autoclaving, as described below. A 5% (weight/volume) solution of N-butylglucamine containing 20 mM MgSO4, at pH 5.0, was autoclaved in a 500 ml shake flask with a silicon closure in place. The conditions for autoclaving were 121° C., 30 P.S.I., for 30 minutes. The pH was checked afterwards and found to be 5.0 at room temperature. There was no visible change in the color or the clarity of the solution, an indication that no caramelization or precipitation had occurred. […] Controls (not autoclaved) indicated at least 90% conversion at 48 hours, also. Autoclaving can therefore be used as a method for sterilizing the reaction solution.
# [2] = cited from earlier work
SMILES,stability of solution to autoclaving (HPLC before vs after) [1],exposure concentration producing nose and throat irritation ([2]; exposure to as little as),hazard description per Material Safety Data Sheets ([2]; supplier MSDS (Fisher Scientific))
CCCCNC[C@H](O)[C@@H](O)[C@H](O)[C@H](O)CO [N-butylglucamine],the same,,
CCCCN [N-n-butylamine],,5-10 ppm,"toxic and a severe eye, skin and mucous membrane irritant"
